Measurements published in patent US12522612B2, “PDE4 inhibitors, pharmaceutical compositions, and therapeutic applications” (BioTheryX, Inc., priority 2019, dated 2026).

Tested on: TNF-α
Assay: Cell-based TNF-α inhibition assay in LPS-induced PBMCs (Meso Scale)
Settings: PBMC, PBMCs pretreated 1 h, LPS 100 ng/mL 18-24 h, relative to stimulated DMSO control; for inhibition at 1 µM: compound concentration 1 μM; for inhibition at 0.1 µM: compound concentration 0.1 μM
Experimental: Frozen primary blood mononuclear cells (PBMCs) were quick thawed, washed once with RPMI 1640 media supplemented with 10% fetal bovine serum, 1% penicillin, and 1% streptomycin, and plated in a 96 well plate at 200,000 cells per well. The cells were pretreated with DMSO only as a control or a compound for 1 h, and then induced with LPS (lipopolysaccharide) (100 ng/mL) for 18-24 h. The supernatant was analyzed for TNF-α using the Meso Scale assay. Compound activity was determined as a percentage of the stimulated DMSO control. The results are summarized in Table 1, where A represents a percent inhibition value ≥60%; B represents a percent inhibition value <60% and ≥40%; C represents a percent inhibition value <40% and >20%; and D represents a single percent inhibition value <20%.

| SMILES | inhibition at 1 µM [%] | inhibition at 0.1 µM [%] |
| --- | --- | --- |
| CCOc1cc([C@@H](CS(C)(=O)=O)N2C(=O)c3cccc(NC(=O)COCCOCCOCCOCCNc4cccc5c4C(=O)N(C4CCC(=O)NC4=O)C5=O)c3C2=O)ccc1OC (stereo partly drawn) [Compound B48, 14-((2-(2,6-Dioxopiperidin-3-yl)-1,3-dioxoisoindolin-4-yl)amino)-N-(2-((S)-1-(3-ethoxy-4-methoxyphenyl)-2-(methylsulfonyl)ethyl)-1,3-dioxoisoindolin-4-yl)-3,6,9,12-tetraoxatetradecan-1-amide] | ≥ 60 |  |
| COc1ccc(C2CNC(=O)C2)cc1OCCCCCCCN1CCC(c2cc(F)cc3c2CN(C2CCC(=O)NC2=O)C3=O)CC1 (centres unmarked) [Compound B53, 3-(6-Fluoro-4-(1-(7-(2-methoxy-5-(5-oxopyrrolidin-3-yl)phenoxy)heptyl)piperidin-4-yl)-1-oxoisoindolin-2-yl)piperidine-2,6-dione] | < 20 |  |
| COc1ccc(N2C(=O)c3ccc(NCCCCCCCN4CCC(c5cc(F)cc6c5CN(C5CCC(=O)NC5=O)C6=O)CC4)cc3C2=O)cc1OC1CCCC1 (centres unmarked) [Compound B54, 2-(3-(Cyclopentyloxy)-4-methoxyphenyl)-5-((7-(4-(2-(2,6-dioxopiperidin-3-yl)-6-fluoro-1-oxoisoindolin-4-yl)piperidin-1-yl)heptyl)amino)isoindoline-1,3-dione] | 20 to 40 |  |
| COc1ccc(C2CNC(=O)C2)cc1OCCCCCCCN1CCC(c2cc3c(cc2F)C(=O)N(C2CCC(=O)NC2=O)C3)CC1 (centres unmarked) [Compound B55, 3-(6-Fluoro-5-(1-(7-(2-methoxy-5-(5-oxopyrrolidin-3-yl)phenoxy)heptyl)piperidin-4-yl)-1-oxoisoindolin-2-yl)piperidine-2,6-dione] | 20 to 40 |  |
| COc1ccc(N2Cc3ccc(NCCCCCCCN4CCC(c5cc(F)cc6c5CN(C5CCC(=O)NC5=O)C6=O)CC4)cc3C2=O)cc1OC1CCCC1 (centres unmarked) [Compound B56, 3-(4-(1-(7-((2-(3-(Cyclopentyloxy)-4-methoxyphenyl)-3-oxoisoindolin-5-yl)amino)heptyl)piperidin-4-yl)-6-fluoro-1-oxoisoindolin-2-yl)piperidine-2,6-dione] | 40 to 60 |  |
| O=C1CC(c2ccc(OCCCCCCCN3CCC(c4cc(F)cc5c4CN(C4CCC(=O)NC4=O)C5=O)CC3)c(OC3CCCC3)c2)CN1 (centres unmarked) [Compound B57, 3-(4-(1-(7-(2-(Cyclopentyloxy)-4-(5-oxopyrrolidin-3-yl)phenoxy)heptyl)piperidin-4-yl)-6-fluoro-1-oxoisoindolin-2-yl)piperidine-2,6-dione] | < 20 |  |
| Nc1ccc2c(c1)C(=O)N(c1ccc(OCCCCCCCN3CCC(c4cc(F)cc5c4CN(C4CCC(=O)NC4=O)C5=O)CC3)c(OC3CCCC3)c1)C2=O (centres unmarked) [Compound B58, 5-Amino-2-(3-(cyclopentyloxy)-4-((7-(4-(2-(2,6-dioxopiperidin-3-yl)-6-fluoro-1-oxoisoindolin-4-yl)piperidin-1-yl)heptyl)oxy)phenyl)isoindoline-1,3-dione] | < 20 |  |
| O=C1CCC(N2Cc3c(cc(F)cc3C3CCN(CCCCCCCOc4ccc(N5C(=O)c6ccccc6C5=O)cc4OC4CCCC4)CC3)C2=O)C(=O)N1 (centres unmarked) [Compound B59, 2-(3-(Cyclopentyloxy)-4-((7-(4-(2-(2,6-dioxopiperidin-3-yl)-6-fluoro-1-oxoisoindolin-4-yl)piperidin-1-yl)heptyl)oxy)phenyl)isoindoline-1,3-dione] | < 20 |  |
| COc1ccc(N2Cc3ccc(N)cc3C2=O)cc1OCCCCCCCN1CCC(c2cc(F)cc3c2CN(C2CCC(=O)NC2=O)C3=O)CC1 (centres unmarked) [Compound B60, 3-(4-(1-(7-(5-(6-Amino-1-oxoisoindolin-2-yl)-2-methoxyphenoxy)heptyl)piperidin-4-yl)-6-fluoro-1-oxoisoindolin-2-yl)piperidine-2,6-dione] | 20 to 40 |  |
| O=C1CCC(N2Cc3cc(C4CCN(CCCCCCCOc5cc(C(=O)Nc6c(Cl)cncc6Cl)ccc5OC(F)F)CC4)c(F)cc3C2=O)C(=O)N1 (centres unmarked) [Compound B61, N-(3,5-Dichloropyridin-4-yl)-4-(difluoromethoxy)-3-((7-(4-(2-(2,6-dioxopiperidin-3-yl)-6-fluoro-1-oxoisoindolin-5-yl)piperidin-1-yl)heptyl)oxy)benzamide] | ≥ 60 | ≥ 60 |
| CCOc1cc([C@@H](CS(C)(=O)=O)N2C(=O)c3cccc(NC(=O)CCCCCCCCC(=O)N[C@H](C(=O)N4C[C@H](O)C[C@H]4C(=O)NCc4ccc(-c5scnc5C)cc4)C(C)(C)C)c3C2=O)ccc1OC [Compound B63, N^1-(2-((S)-1-(3-Ethoxy-4-methoxyphenyl)-2-(methylsulfonyl)ethyl)-1,3-dioxoisoindolin-4-yl)-N^10—((S)-1-((2S,4R)-4-hydroxy-2-((4-(4-methylthiazol-5-yl)benzyl)carbamoyl)pyrrolidin-1-yl)-3,3-dimethyl-1-oxobutan-2-yl)decanediamide] | ≥ 60 | ≥ 60 |
| CCOc1cc([C@@H](CS(C)(=O)=O)N2C(=O)c3cccc(NC(=O)CCOCc4ccc(COCCNc5cccc6c5C(=O)N(C5CCC(=O)NC5=O)C6=O)cc4)c3C2=O)ccc1OC (stereo partly drawn) [Compound B64, 3-((4-((2-((2-(2,6-Dioxopiperidin-3-yl)-1,3-dioxoisoindolin-4-yl)amino)ethoxy)-methyl)benzyl)oxy)-N-(2-((S)-1-(3-ethoxy-4-methoxyphenyl)-2-(methylsulfonyl)ethyl)-1,3-dioxoisoindolin-4-yl)propanamide] | ≥ 60 | ≥ 60 |
| COc1ccc(N2C(=O)c3ccsc3C2=O)cc1OCCCCCCCN1CCC(c2cc(F)cc3c2CN(C2CCC(=O)NC2=O)C3=O)CC1 (centres unmarked) [Compound B65, 5-(3-((7-(4-(2-(2,6-Dioxopiperidin-3-yl)-6-fluoro-1-oxoisoindolin-4-yl)piperidin-1-yl)heptyl)oxy)-4-methoxyphenyl)-4H-thieno[2,3-c]pyrrole-4,6(5H)-dione] | < 20 |  |
| COc1ccc(C2CNC(=O)C2)cc1OCCCCCCCNc1cccc2c1C(=O)N(C1CCC(=O)NC1=O)C2=O (centres unmarked) [Compound B66, 2-(2,6-Dioxopiperidin-3-yl)-4-((7-(2-methoxy-5-(5-oxopyrrolidin-3-yl)phenoxy)-heptyl)amino)isoindoline-1,3-dione] | ≥ 60 |  |
| COc1ccc(C2CNC(=O)C2)cc1OCCCCCCCCC(=O)N[C@H](C(=O)N1C[C@H](O)C[C@H]1C(=O)NCc1ccc(-c2scnc2C)cc1)C(C)(C)C (stereo partly drawn) [Compound B67, (2S,4R)-4-Hydroxy-1-((2S)-2-(9-(2-methoxy-5-(5-oxopyrrolidin-3-yl)phenoxy)-nonanamido)-3,3-dimethylbutanoyl)-N-(4-(4-methylthiazol-5-yl)benzyl)pyrrolidine-2-carboxamide] | ≥ 60 |  |
| Cc1ncsc1-c1ccc(CNC(=O)[C@@H]2C[C@@H](O)CN2C(=O)[C@@H](NC(=O)CCCCCCCCOc2cc(C(=O)Nc3c(Cl)cncc3Cl)ccc2OC(F)F)C(C)(C)C)cc1 [Compound B68, (2S,4R)-1-((S)-2-(9-(5-((3,5-Dichloropyridin-4-yl)carbamoyl)-2-(difluoromethoxy)phenoxy)nonanamido)-3,3-dimethylbutanoyl)-4-hydroxy-N-(4-(4-methylthiazol-5-yl)benzyl)pyrrolidine-2-carboxamide] | ≥ 60 | ≥ 60 |
